The text below walks through data of patent US12059422B2 (MEI Pharma, Inc., priority 2011, dated 2024).

As usually defined, the IC50 is the concentration that inhibits the measured activity by half.

One assay addresses T1, PI3Kβ (Homo sapiens, UniProt P42338).
T1 construct: endogenous in cells; host or cells: PC-3 (ATCC #CRL-1435)
In words: ELISA assay for PI3Kβ: in-cell ELISA, phosphorylation of AKT (Ser473) in PC-3 cells. To be noted: for IC50: cellular, pAKT (Ser473), PC-3 cells, LPA stimulation, read-out: IC50 p110β; for α/β ratio: ratio of cellular IC50 values, Table 2. Type of assay: cell-based. How it is done: Cellular PI3Kβ activity was determined by measuring the phosphorylation of AKT (Ser473) using an in-cell ELISA assay. PC-3 (prostate carcinoma) cells were obtained from ATCC (ATCC #CRL-1435). Growth medium was DMEM (CellGro #CV-10-013-CV) supplemented with 10% fetal bovine serum, 100 IU/mL penicillin, 100 μg/mL streptomycin, and 1×MEM non-essential amino acids. Phosphate buffered saline (PBS) contained 2.7 M NaCl, 54 mM KCl, 86 mM […] (dibasic, anhydrous), 28 mM […] (monobasic, anhydrous), pH 7.2, 10× stimulation mixture contained 50 μM LPA (Cayman #62215) diluted in serum-free DMEM medium (CellGro #CV-10-013-CV). Compounds for testing were dissolved and serially diluted in 100% DMSO (total of 10 concentrations), then diluted in serum-free DMEM to 2× final assay concentration. 2× fixative solution contained 8% formaldehyde (Amresco #M134) diluted in PBS. Permeabilization solution contained PBS supplemented with 0.1% Triton X-100. Blocking buffer was obtained from LiCor (LiCor #927-40000). Wash buffer contained PBS supplemented with 0.1% Tween-20. Primary antibody solution was rabbit anti-pAKT^S473 monoclonal antibody (Cell Signaling #4060) and mouse anti-total S6 (Santa Cruz #74459) diluted 1:500 and 1:2000, respectively, in blocking buffer. Secondary antibody solution was IRDye 800CW-conjugated goat anti-rabbit IgG (LiCor #926-32211) and IRDye 680LT-conjugated goat anti-mouse IgG (LiCor #926-68020) diluted 1:2000 and 1:1000, respectively, in blocking buffer.
PC-3 cells were subcultured in growth medium and seeded into flat, clear bottom, 96-well plates (Corning #3904) at 16000 cells/well, then incubated overnight in a 37° C., 5% CO2 incubator. Growth medium in plates was replaced with 100 μL/well serum-free DMEM and incubated overnight in a 37° C., 5% CO2 incubator. 50 μL/well of fresh serum-free DMEM was added to plates. Compound treatment was performed by adding 50 μL/well of 2× compound mixture to plates and incubating for 2 hrs at 37° C., 5% CO2, after which 11 μL/well of 10× stimulation mixture was added and plates were incubated for 10 min at 37° C., 5% CO2. Fixation was performed by adding 110 μL/well of 2× fixative solution to plates and incubating for 20 min at room temperature. Permeabilization was performed by replacing fixation solution with 150 μL/well permeabilization solution and incubating for 10 min at room temperature. Permeabilization was repeated (for a total of 2 times). Permeabilization solution was replaced with 100 μL/well blocking buffer and plates were incubated for 1 hr at room temperature, after which 100 μL/well of primary antibody solution was added and plates were incubated overnight at 4° C. Plates were washed with wash buffer, after which 100 μL/well of secondary antibody solution was added to the plates and incubated in the dark for 1 hr at room temperature. Plates were washed with wash buffer, followed by awash with PBS. After completely removing PBS, plates were scanned on the Licor Odyssey Imager. Images quantified using Licor Odyssey application software. IC50 values were determined by curve fitting using a Collaborative Drug Discovery database (www.collaborativedrug.com).
On the technique in general: ELISA stands for enzyme-linked immunosorbent assay.

A further assay addresses T2, PI3Kγ (Mus musculus, UniProt Q9JHG7).
T2 construct: endogenous in cells; host or cells: RAW 264.7 (ATCC #TIB-71)
In words: ELISA assay for PI3Kγ: in-cell ELISA, phosphorylation of AKT (Ser473) in RAW 264.7 cells. The following applies: cellular, pAKT (Ser473), C5a stimulation, read-out: IC50 p110γ. Type of assay: cell-based. The method, then: PI3K gamma (PI3Kγ) activity was determined by measuring the phosphorylation of AKT (Ser473) using an in-cell ELISA assay. RAW 264.7 (mouse macrophage) cells were obtained from ATCC (ATCC #TIB-71). Growth medium was DMEM (CellGro #CV-10-013-CV) supplemented with 10% fetal bovine serum, 100 IU/mL penicillin, 100 μg/mL streptomycin, and 1×MEM non-essential amino acids. Phosphate buffered saline (PBS) contained 2.7 M NaCl, 54 mM KCl, 86 mM […] (dibasic, anhydrous), and 28 mM […] (monobasic, anhydrous) at pH 7.2. Stimulation mixture (10×) was 500 ng/mL recombinant human complement component C5a (R&D systems #2037-C5-025) diluted in serum-free DMEM medium (CellGro #CV-10-013-CV). Compounds for testing were dissolved and serially diluted in 100% DMSO (total of 10 concentrations), then diluted in serum-free DMEM to 2× final assay concentration. Fixative solution (2×) was 8% formaldehyde (Amresco #M134) diluted in PBS. Permeabilization solution was PBS supplemented with 0.10% Triton X-100. Blocking buffer was obtained from LiCor (LiCor #927-40000). Wash buffer was PBS supplemented with 0.1% Tween-20. Primary antibody solution was rabbit anti-pAKT^S473 monoclonal antibody (Cell Signaling #4060) and mouse anti-total S6 (Santa Cruz #74459) diluted 1:500 and 1:2000, respectively, in the blocking buffer. Secondary antibody solution was IRDye 800CW-conjugated goat anti-rabbit IgG (LiCor #926-32211) and IRDye 680LT-conjugated goat anti-mouse IgG (LiCor #926-68020) diluted 1:1000 and 1:2000, respectively, in the blocking buffer.
RAW 264.7 cells were subcultured in growth medium and seeded into flat, clear bottom, 96-well plates (Corning #3904) at 70000 cells/well, then incubated overnight in a 37° C., 5% CO2 incubator. Growth medium in plates was replaced with 100 μL/well serum-free DMEM and incubated overnight in a 37° C., 5% CO2 incubator. Fresh serum-free DMEM (50 μL/well) was added to plates. Compound treatment was performed by adding 50 μL/well of 2× compound mixture to plates and incubating for 2 hrs at 37° C., 5% CO2, after which 11 μL/well of 10× stimulation mixture was added and plates were incubated for 3 min at 37° C., 5% CO2. Fixation was performed by adding 110 μL/well of 2× fixative solution to plates and incubating for 20 min at room temperature. Permeabilization was performed by replacing fixation solution with 150 μL/well permeabilization solution and incubating for 10 min at room temperature. Permeabilization was repeated (for a total of 2 times). Permeabilization solution was replaced with 100 μL/well blocking buffer and plates were incubated for 1 hr at room temperature, after which 100 μL/well of primary antibody solution was added and plates were incubated overnight at 4° C. Plates were washed with wash buffer, after which 100 μL/well of secondary antibody solution was added to the plates and incubated in the dark for 1 hr at room temperature. Plates were washed with wash buffer, followed by awash with PBS. After completely removing PBS, plates were scanned on the Licor Odyssey Imager. Images were quantified using Licor Odyssey application software. IC50 values were determined by curve fitting using a Collaborative Drug Discovery database (www.collaborativedrug.com).

Some results are limits rather than exact numbers.

T1 sequence (P42338 whole entry): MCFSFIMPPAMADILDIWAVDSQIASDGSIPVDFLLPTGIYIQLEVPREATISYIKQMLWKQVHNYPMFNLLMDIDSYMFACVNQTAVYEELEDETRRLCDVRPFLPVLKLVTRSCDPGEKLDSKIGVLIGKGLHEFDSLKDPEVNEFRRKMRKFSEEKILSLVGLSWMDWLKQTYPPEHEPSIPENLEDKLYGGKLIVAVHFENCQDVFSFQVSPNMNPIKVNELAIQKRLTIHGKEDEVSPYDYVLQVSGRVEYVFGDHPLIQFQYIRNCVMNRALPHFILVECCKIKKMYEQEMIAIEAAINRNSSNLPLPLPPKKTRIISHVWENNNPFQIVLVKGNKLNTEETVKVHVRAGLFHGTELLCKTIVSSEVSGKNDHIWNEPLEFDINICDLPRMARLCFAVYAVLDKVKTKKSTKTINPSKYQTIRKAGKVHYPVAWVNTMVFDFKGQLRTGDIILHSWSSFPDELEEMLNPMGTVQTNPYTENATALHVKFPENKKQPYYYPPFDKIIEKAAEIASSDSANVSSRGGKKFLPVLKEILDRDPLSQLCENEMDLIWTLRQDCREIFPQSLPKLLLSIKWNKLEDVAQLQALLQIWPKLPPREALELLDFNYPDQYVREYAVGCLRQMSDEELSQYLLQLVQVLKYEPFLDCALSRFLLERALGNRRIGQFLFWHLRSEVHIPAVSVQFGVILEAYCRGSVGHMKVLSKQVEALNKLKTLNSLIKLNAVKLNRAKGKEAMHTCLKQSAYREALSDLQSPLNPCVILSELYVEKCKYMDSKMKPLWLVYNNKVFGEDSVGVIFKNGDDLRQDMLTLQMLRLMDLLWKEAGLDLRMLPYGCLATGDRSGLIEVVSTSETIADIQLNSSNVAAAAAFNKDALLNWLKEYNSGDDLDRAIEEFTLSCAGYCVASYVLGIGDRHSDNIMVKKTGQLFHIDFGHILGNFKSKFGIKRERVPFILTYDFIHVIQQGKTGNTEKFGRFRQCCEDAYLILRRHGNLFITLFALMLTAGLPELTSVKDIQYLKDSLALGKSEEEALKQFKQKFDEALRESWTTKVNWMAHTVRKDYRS
T1 sequence (P27986 whole entry partner): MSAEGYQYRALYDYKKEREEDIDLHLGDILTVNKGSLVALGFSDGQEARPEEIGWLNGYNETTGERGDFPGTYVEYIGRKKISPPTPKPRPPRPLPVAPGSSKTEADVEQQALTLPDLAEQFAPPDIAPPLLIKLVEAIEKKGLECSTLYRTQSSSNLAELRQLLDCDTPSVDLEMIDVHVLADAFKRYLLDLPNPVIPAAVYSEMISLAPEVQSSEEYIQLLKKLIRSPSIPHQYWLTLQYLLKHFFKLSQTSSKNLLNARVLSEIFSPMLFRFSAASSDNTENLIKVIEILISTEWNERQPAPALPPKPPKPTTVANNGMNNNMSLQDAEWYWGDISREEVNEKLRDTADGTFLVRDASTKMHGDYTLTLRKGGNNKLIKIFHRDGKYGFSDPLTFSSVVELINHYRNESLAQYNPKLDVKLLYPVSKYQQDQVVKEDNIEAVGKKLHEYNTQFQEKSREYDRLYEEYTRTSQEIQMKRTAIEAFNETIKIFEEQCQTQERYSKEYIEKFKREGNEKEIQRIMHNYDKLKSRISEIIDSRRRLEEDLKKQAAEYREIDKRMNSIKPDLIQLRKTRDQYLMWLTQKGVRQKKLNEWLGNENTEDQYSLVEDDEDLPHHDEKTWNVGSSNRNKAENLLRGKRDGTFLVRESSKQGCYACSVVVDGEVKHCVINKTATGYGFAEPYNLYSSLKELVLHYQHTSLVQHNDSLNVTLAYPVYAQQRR
T2 sequence (Q9JHG7 whole entry): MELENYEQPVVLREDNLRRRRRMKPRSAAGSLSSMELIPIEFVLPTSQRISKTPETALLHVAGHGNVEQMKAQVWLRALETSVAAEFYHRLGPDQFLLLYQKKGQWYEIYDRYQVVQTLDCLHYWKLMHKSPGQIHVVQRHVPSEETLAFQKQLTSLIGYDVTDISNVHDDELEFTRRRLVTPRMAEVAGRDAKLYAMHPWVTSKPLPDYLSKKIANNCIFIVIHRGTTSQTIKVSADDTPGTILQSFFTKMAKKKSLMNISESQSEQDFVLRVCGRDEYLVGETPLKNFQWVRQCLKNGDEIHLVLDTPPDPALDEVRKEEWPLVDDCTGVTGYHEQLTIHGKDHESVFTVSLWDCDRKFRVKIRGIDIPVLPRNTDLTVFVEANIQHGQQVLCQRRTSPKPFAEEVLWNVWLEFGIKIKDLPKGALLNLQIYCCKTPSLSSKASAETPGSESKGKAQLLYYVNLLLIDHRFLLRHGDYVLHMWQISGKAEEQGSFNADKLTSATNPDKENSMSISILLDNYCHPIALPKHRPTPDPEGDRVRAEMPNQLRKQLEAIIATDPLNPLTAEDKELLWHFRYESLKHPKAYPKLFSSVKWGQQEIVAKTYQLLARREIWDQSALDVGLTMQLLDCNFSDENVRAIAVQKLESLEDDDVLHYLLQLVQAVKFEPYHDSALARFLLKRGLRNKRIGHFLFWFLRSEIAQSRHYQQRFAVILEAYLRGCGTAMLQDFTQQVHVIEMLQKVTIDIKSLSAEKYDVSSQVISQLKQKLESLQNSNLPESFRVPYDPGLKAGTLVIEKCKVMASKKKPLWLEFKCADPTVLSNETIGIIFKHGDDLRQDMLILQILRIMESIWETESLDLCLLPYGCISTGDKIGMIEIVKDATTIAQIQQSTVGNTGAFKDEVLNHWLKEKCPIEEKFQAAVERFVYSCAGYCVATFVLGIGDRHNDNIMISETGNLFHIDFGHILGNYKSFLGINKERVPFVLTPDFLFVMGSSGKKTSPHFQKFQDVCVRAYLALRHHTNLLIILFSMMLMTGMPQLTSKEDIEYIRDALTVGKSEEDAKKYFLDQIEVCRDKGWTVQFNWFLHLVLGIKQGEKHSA

For `CC(C)(Cc1ccccc1-c1cncnc1)Nc1nc(N2CCOCC2)nc(-n2c(C(F)F)nc3ccccc32)n1` [Compound A63, 4-(2-(difluoromethyl)-1H-benzo[d]imidazol-1-yl)-N-(2-methyl-1-(2-(pyrimidin-5-yl)phenyl)propan-2-yl)-6-morpholino-1,3,5-triazin-2-amine], at PI3Kβ, the 50% inhibitory concentration (IC50) was at most 0.1 µM and the α/β ratio result is on record as “A’”. Besides, the IC50 at PI3Kγ was over 0.5 µM.
For `CN1CCN(c2cc(-c3ccccc3CC(C)(C)Nc3nc(N4CCOCC4)nc(-n4c(C(F)F)nc5ccccc54)n3)ccn2)CC1` [Compound A64, 4-(2-(difluoromethyl)-1H-benzo[d]imidazol-1-yl)-N-(2-methyl-1-(2-(2-(4-methylpiperazin-1-yl)pyridin-4-yl)phenyl)propan-2-yl)-6-morpholino-1,3,5-triazin-2-amine], on PI3Kβ, the concentration for half-maximal inhibition (IC50) is at most 0.1 µM and the α/β ratio entry is “A’”. The IC50 on PI3Kγ is over 0.5 µM.
As for `CC(C)(Cc1ccccc1-c1cccc(CN2CCOCC2)c1)Nc1nc(N2CCOCC2)nc(-n2c(C(F)F)nc3ccccc32)n1` [Compound A65, 4-(2-(difluoromethyl)-1H-benzo[d]imidazol-1-yl)-N-(2-methyl-1-(3′-(morpholinomethyl)biphenyl-2-yl)propan-2-yl)-6-morpholino-1,3,5-triazin-2-amine], at PI3Kβ, the 50% inhibitory concentration (IC50) was at most 0.1 µM and the α/β ratio result is “A’”. Besides, at PI3Kγ, the IC50 lay within 0.2 to 0.5 µM.
With `COc1cccc(-c2ccccc2CC(C)(C)Nc2nc(N3CCOCC3)nc(-n3c(C(F)F)nc4ccccc43)n2)c1` [Compound A66, 4-(2-(difluoromethyl)-1H-benzo[d]imidazol-1-yl)-N-(1-(3′-methoxybiphenyl-2-yl)-2-methylpropan-2-yl)-6-morpholino-1,3,5-triazin-2-amine], on PI3Kβ, the IC50 was in the range of 0.1 to 0.2 µM and the α/β ratio entry is recorded as “A’”. At PI3Kγ, the half-maximal inhibitory concentration (IC50) is over 0.5 µM.
With `COc1ccc(-c2ccccc2CC(C)(C)Nc2nc(N3CCOCC3)nc(-n3c(C(F)F)nc4ccccc43)n2)cc1` [Compound A67, 4-(2-(difluoromethyl)-1H-benzo[d]imidazol-1-yl)-N-(1-(4′-methoxybiphenyl-2-yl)-2-methylpropan-2-yl)-6-morpholino-1,3,5-triazin-2-amine], at PI3Kβ, the concentration for half-maximal inhibition (IC50) fell in the range of 0.2 to 0.5 µM and the α/β ratio result is on record as “A’”. Moreover, at PI3Kγ, the IC50 was over 0.5 µM.
With `CC(C)(Cc1ccccc1C1CCNCC1)Nc1nc(N2CCOCC2)nc(-n2c(C(F)F)nc3ccccc32)n1` [Compound A68, 4-(2-(difluoromethyl)-1H-benzo[d]imidazol-1-yl)-N-(2-methyl-1-(2-(piperidin-4-yl)phenyl)propan-2-yl)-6-morpholino-1,3,5-triazin-2-amine], at PI3Kβ, the IC50 was at most 0.1 µM and the α/β ratio result is on record as “A’”. Also, the half-inhibitory concentration (IC50) on PI3Kγ was 0.2 to 0.5 µM.
On the same counts, the results for `CCN1CCC(c2ccccc2CC(C)(C)Nc2nc(N3CCOCC3)nc(-n3c(C(F)F)nc4ccccc43)n2)CC1` [Compound A70, 4-(2-(difluoromethyl)-1H-benzo[d]imidazol-1-yl)-N-(1-(2-(1-ethylpiperidin-4-yl)phenyl)-2-methylpropan-2-yl)-6-morpholino-1,3,5-triazin-2-amine] are at most 0.1 µM, “A’” and over 0.5 µM.
Consider `CC(C)N1CCC(c2ccccc2CC(C)(C)Nc2nc(N3CCOCC3)nc(-n3c(C(F)F)nc4ccccc43)n2)CC1` [Compound A71, 4-(2-(difluoromethyl)-1H-benzo[d]imidazol-1-yl)-N-(1-(2-(1-isopropylpiperidin-4-yl)phenyl)-2-methylpropan-2-yl)-6-morpholino-1,3,5-triazin-2-amine], for which the IC50 on PI3Kβ is at most 0.1 µM; on PI3Kγ it was over 0.5 µM. The α/β ratio result at PI3Kβ is given as “A’”.
For `CC(=O)N1CCC(c2ccccc2CC(C)(C)Nc2nc(N3CCOCC3)nc(-n3c(C(F)F)nc4ccccc43)n2)CC1` [Compound A72, 4-(2-(difluoromethyl)-1H-benzo[d]imidazol-1-yl)-N-(2-methyl-1-(2-(1-acetylpiperidin-4-yl)phenyl)propan-2-yl)-6-morpholino-1,3,5-triazin-2-amine], in that order: at most 0.1 µM, at most 0.1 µM and “A’”.
In the case of `CC(C)(Cc1ccccc1C1CCN(S(C)(=O)=O)CC1)Nc1nc(N2CCOCC2)nc(-n2c(C(F)F)nc3ccccc32)n1` [Compound A73, 4-(2-(difluoromethyl)-1H-benzo[d]imidazol-1-yl)-N-(2-methyl-1-(2-(1-(methylsulfonyl)piperidin-4-yl)phenyl)propan-2-yl)-6-morpholino-1,3,5-triazin-2-amine], the half-inhibitory concentration (IC50) on PI3Kβ and at PI3Kγ was at most 0.1 µM throughout. The α/β ratio result on PI3Kβ is recorded as “A’”.
`CC(C)(Cc1ccccc1C1CCNC1)Nc1nc(N2CCOCC2)nc(-n2c(C(F)F)nc3ccccc32)n1` (stereo not drawn) [Compound A74, 4-(2-(difluoromethyl)-1H-benzo[d]imidazol-1-yl)-N-(2-methyl-1-(2-(pyrrolidin-3-yl)phenyl)propan-2-yl)-6-morpholino-1,3,5-triazin-2-amine]: at PI3Kβ, the 50% inhibitory concentration (IC50) is at most 0.1 µM and the α/β ratio result was “A’”. In addition, at PI3Kγ, the concentration for half-maximal inhibition (IC50) lay within 0.2 to 0.5 µM.
